Reference: PMC7725506, “Functional Diversification of SRSF Protein Kinase to Control Ubiquitin-Dependent Neurodevelopmental Signaling” (Developmental Cell, 2020)

Experiments:
[1] = test system: Foxp1 exon 16-16b alternative splicing switch; experiment: Foxp1 exon 16-16b incorporation in mESCs by quantitative RT-PCR; type: cell-based, mouse; settings: 1 μM, 8 h
Method: SRSF phosphorylation, SRPK1, SRPK2, and ERK1/2 levels were determined by immunoblotting. Expected positions of SRSFs that are not detected are shown in gray. Quantification of SRSF phosphorylation (Right). Data represented as mean ± SEM (n = 4). […] Neuro 2a is a control for exon 16b exclusion in differentiated cells (Bottom). Data represented as mean ± SEM (n = 3). […] Exon 16 inclusion: (^∗∗∗∗) p < 0.0001, Exon 16b inclusion: (^∗) p = 0.0164, p = 0.0485, and p = 0.0489 (left to right). Ratio exon 16b/16: (^∗∗∗∗) p < 0.0001, (^∗∗∗) p = 0.0003. (C) SRPK substrates predicted using ScanProsite and grouped according to UniProt functions. (D) RNF12 phosphorylation sites detected by mass-spectrometry. LZL, leucine-zipper like; NLS, nuclear localization signal; NES, nuclear export signal; RING, RING E3 ubiquitin ligase catalytic domain. (E) CMGC family kinase copy numbers in mESCs determined by quantitative proteomics and represented using Kinoviewer. (F) CMGC kinase (200 mU) phosphorylation of the RNF12 SR-motif in vitro was determined by immunoblotting for RNF12 phospho-Ser214 and total RNF12. […] Normalized RNF12 Ser214 phosphorylation is shown below. Data represented as mean ± SEM (n = 3). […] RNF12 SR-motif phosphorylation was analyzed by immunoblotting for RNF12 phospho-Ser214 and RNF12. SRPK1 and SRPK2 levels are shown as a loading control, Related to Figure S1; Tables S1 and S2.
Total RNA extraction and reverse transcription was performed as described. Quantitative PCR reactions using SsoFast EvaGreen Supermix (Bio-Rad) were performed in a CFX384 real time PCR system (Bio-Rad). Relative RNA expression was calculated through the ΔΔCt method and normalised to Gapdh expression. Data was analysed in Excel (Microsoft) and statistical analysis performed in GraphPad Prism v7.0c software (GraphPad Software Inc.).

[2] = test system: Ser-Arg rich splicing factors (SRSF); experiment: SRSF phosphorylation in mESCs, immunoblotting with phosphoepitope SR proteins antibody; type: cell-based, mouse; settings: 10 μM, 4 h
Method: SRSF phosphorylation, SRPK1, SRPK2, and ERK1/2 levels were determined by immunoblotting. […] Quantification of SRSF phosphorylation (Right). Data represented as mean ± SEM (n = 4). […] Data represented as mean ± SEM (n = 3). One-way ANOVA followed by Tukey’s multiple comparisons test; confidence level 95%.
All compounds were diluted in DMSO and mESCs treated with 10 μM inhibitor for 4 h prior lysis unless indicated otherwise.
SDS-PAGE electrophoresis and immunoblotting was performed using standard methods. Cells were lysed in lysis buffer (20 mM Tris [pH 7.4], 150 mM NaCl, 1 mM EDTA, 1% NP-40 [v/v], 0.5% sodium deoxycholate [w/v], 10 mM β-glycerophosphate, 10 mM sodium pyrophosphate, 1 mM NaF, 2 mM Na3VO4, and Roche Complete Protease Inhibitor Cocktail Tablets). Phospho-specific antibodies were used at 1 μg/ml with 10 μg/ml of the corresponding non-phosphopeptide. After secondary antibody incubation, membranes were subjected to chemiluminescence detection with Immobilon Western Chemiluminescent HRP Substrate (Millipore) using a Gel-Doc XR+ System (Bio-Rad) or Infrared detection using a LI-COR Odyssey Clx system.

CCc1cc2c(cc1-c1cccc(S(=O)(=O)F)c1)C(C)(C)c1[nH]c3cc(C#N)ccc3c1C2=O [SRPKIN-1]
Foxp1 exon 16b-exon 16 inclusion [1]: little effect
phosphorylation of SRSF4 [2]: only slightly inhibited
phosphorylation of SRSF6/11, SRSF5/7/10 [2]: not significantly altered
